Experimental data taken from US11931346B2, “Uses of 4′-desferrithiocin analogs” (University of Florida Research Foundation, Incorporated, priority 2011, dated 2024).
Read-outs that look alike come from different tables or passages of the source.

Experiments:
[1] = test system: acetic acid-induced colitis in rats; assay: Prevention of acetic acid-induced colitis in a rat model; format: in vivo, Sprague-Dawley rats; details: DFO 20 mg/kg 30 minutes before 4% acetic acid (FIG. 1)
Method: Induction of colitis. Male Sprague-Dawley rats (250-350 g) were anesthetized with sodium pentobarbital, 55 mg/kg intraperitoneally. The abdomen was shaved and prepared for surgery. A midline incision was made, and the cecum and proximal colon were exteriorized. A reversible suture was placed at the junction of the cecum and proximal colon. The colon was rinsed with saline (10 ml), and the fluid and intestinal contents were gently expressed out the rectum. A gum-based rectal plug was inserted. The compound of interest, or distilled water in the control animals (2 ml), was injected intracolonically just distal to the ligature. The cecum and proximal colon were returned to the abdominal cavity; the compound was allowed to remain in the gut for 30 min. Then, the cecum and proximal colon were exteriorized again. The rectal plug was removed, and the drug was gently expressed out of the colon. […] The entire length of the colon was removed and assessed for damage both densitometrically and biochemically.
Quantitation of acetic acid-induced colitis. Gross damage was quantitated using Photoshop-based image analysis (version 5.0, Adobe Systems, Mountain View, Calif., USA) on an Apple iMac computer. […] The cursor was then placed on the histogram, the color range determined in an earlier step was selected, and the number of pixels encompassing that range and the percent damage were quantitated automatically.

[2] = Concentration of DFT analogs in rat plasma and eyes after SC dose, rats perfused with saline; format: in vivo; details: SC 300 μmol/kg, one hour post dose; for concentration at 1 h: rat, plasma, rats perfused with saline; for Concentration in the eye: rats perfused with saline (about 100 ml, 5 minutes), entire eye
Method: Rats were anesthetized with ketamine/xylazine about 50 minutes after dosing. Blood of the rats was collected via cardiac puncture into vacutainer tubes containing buffered sodium citrate one hour post dose. The rats' abdomen and thorax were opened, and a portion of the sternum/ribs was removed. A 19-gauge needle was inserted into the left ventricle of the rats, and the right atrium was cut. About 100 ml of saline was perfused transcardially for five minutes. The perfusion was stopped, and the rats' eyes were removed. Any extraneous tissue was trimmed and discarded. The eyes were frozen. The entire eye was then processed and assessed for the concentration of the DFT analog. The whole blood was centrifuged, and the plasma was separated and frozen until the concentration of the DFT analog was determined.

[3] = Concentration of DFT analogs in rat plasma and eyes after SC dose, rats not perfused; format: in vivo; details: non-perfused rats, SC 300 μmol/kg, one hour post dose; for Concentration in the eye: entire eye; for concentration at 1 h: rat, plasma
Method: Rats were anesthetized with ketamine/xylazine about 50 minutes after dosing. Blood of the rats was collected via cardiac puncture into vacutainer tubes containing buffered sodium citrate one hour post dose. The rats' eyes were removed. Any extraneous tissue was trimmed and discarded. The eyes were frozen. The entire eye was then processed and assessed for the concentration of the DFT analog. The whole blood was centrifuged, and the plasma was separated and frozen until the concentration of the DFT analog was determined.

[4] = Concentration of DFT analogs in rat plasma and cerebrospinal fluid after PO or SC dose; format: in vivo, Sprague-Dawley rats; details: rats, PO 300 μmol/kg, monosodium salt
Method: Adult male Sprague-Dawley rats (450-500 g) were used. The rats were not fasted. A sample solution of a monosodium salt of (S)-4′-(HO)-DADFT-norPE (III-A) or (S)-4′-(HO)-DADFT-PE (IV-A) was administered to the rats at an oral or subcutaneous dose of 300 μmol/kg. Concentrations of the DFT analogs in the plasma and cerebrospinal fluid of the rats were measured at 0.5 hour, 1 hour, 2 hours, 4 hours, and 8 hours post administration.

[5] = Apparent partition coefficient (LogPapp) of DFT analogs; format: physicochemical
[6] = male, Sprague-Dawley, rat, cerebrospinal fluid, read-out: Concentration in cerebrospinal fluid
[7] = male, Sprague-Dawley, rat, plasma, read-out: Concentration in plasma
[8] = male, Sprague-Dawley, rat, plasma, 1 h, read-out: Concentration in plasma
[9] = male, Sprague-Dawley, rat, plasma, 2 h
[10] = male, Sprague-Dawley, rat, plasma, 4 h, read-out: Concentration in plasma

concentration at 1 h [2] [µM] | Concentration in the eye [2] | Concentration in the eye [3] | concentration at 1 h [3] [µM] | concentration at 0.5 h [4, 6] [µM] | concentration at 1 h ([4]; male, Sprague-Dawley, rat, cerebrospinal fluid, 1 h, read-out: Concentration in cerebrospinal fluid) [µM] | concentration at 4 h ([4]; male, Sprague-Dawley, rat, cerebrospinal fluid, 4 h, read-out: Concentration in cerebrospinal fluid) [µM] | concentration at 8 h ([4]; male, Sprague-Dawley, rat, cerebrospinal fluid, 8 h) [nM] | concentration at 0.5 h [4, 7] [µM] | concentration at 1 h [4, 8] [µM] | concentration at 2 h [4, 9] [µM] | concentration at 4 h [4, 10] [µM] | Concentration in cerebrospinal fluid ([4]; 2 h) | Concentration in plasma ([4]; 8 h) | LogPapp [5] | Concentration in cerebrospinal fluid ([4]; 1 h) | Concentration in cerebrospinal fluid ([4]; 4 h) | Concentration in cerebrospinal fluid ([4]; 8 h) | Compound | Prevention of acetic acid-induced colitis [1]
– | – | – | – | – | – | – | – | – | – | – | – | – | – | – | – | – | – | CC(=O)N(O)CCCCCNC(=O)CCC(=O)N(O)CCCCCNC(=O)CCC(=O)N(O)CCCCCN [DFO, desferrioxamine] | prevent acetic acid-induced colitis in rats
218 ± 51 | 17.2 ± 5.5 nmol/g wet weight of the eye | 25.8 ± 6.0 nmol/g wet weight of the eye | 218 ± 16 | 8.07 ± 3.09 | 5.7 ± 2.74 | 0 | 0 | 424 ± 60 | 219 ± 19 | 30 ± 5 | 2 ± 0.4 | 2.32 (only 1 out 3 animals μM | trace | −0.89 | – | – | – | COCCOCCOc1ccc(C2=N[C@@](C)(C(=O)O)CS2)c(O)c1 [III-A, (S)-4′-(HO)-DADFT-norPE] | –
– | – | – | – | 2.14 ± 1.01 | – | – | – | 142 ± 57 | 64 ± 7 | 32 ± 20 | 2 ± 0.5 | trace | trace | −1.10 | trace | trace | trace | COCCOCCOCCOc1ccc(C2=N[C@@](C)(C(=O)O)CS2)c(O)c1 [IV-A, (S)-4′-(HO)-DADFT-PE] | –
663 ± 42 | 29.7 ± 4.3 nmol/g wet weight of the eye | 37.8 ± 4.3 nmol/g wet weight of the eye | 701 ± 32 | – | – | – | – | – | – | – | – | – | – | −0.89 | – | – | – | COc1ccc(C2=N[C@@H](C(=O)O)CS2)c(O)c1 [V-A] | –
